The target in the experiment is SARS-CoV-2 NSP14 (Severe acute respiratory syndrome coronavirus 2, UniProt P0DTD1). The class given is binding.

For the compound `Cn1c[n+]([C@@H]2O[C@H](COP(=O)(O)OP(=O)([O-])OP(=O)(O)OC[C@H]3O[C@@H](n4cnc5c(=O)[nH]c(N)nc54)[C@H](O)[C@@H]3O)[C@@H](O)[C@H]2O)c2nc(N)[nH]c(=O)c21` [m7GpppG], the Tm changes result is listed as “negligible Tm changes”.

On to `C[S+](CC[C@H](N)C(=O)[O-])C[C@H]1O[C@@H](n2cnc3c(N)ncnc32)[C@H](O)[C@@H]1O` (stereo partly shown) [SAM, S-adenosylmethionine], for which the Tm changes result is reported as “negligible Tm changes”.

On to `Nc1nc2c(ncn2[C@@H]2O[C@H](COP(=O)(O)OP(=O)(O)OP(=O)(O)OC[C@H]3O[C@@H](n4cnc5c(=O)[nH]c(N)nc54)[C@H](O)[C@@H]3O)[C@@H](O)[C@H]2O)c(=O)[nH]1` [GpppG, G(5′)ppp(5′)G RNA Cap Structure Analog], for which the Tm changes result was “negligible Tm changes”.

Turning to `Nc1ncnc2c1ncn2[C@@H]1O[C@H](CSCC[C@H](N)C(=O)O)[C@@H](O)[C@H]1O` [SAH], the “Tm shift, maximum reached” value was at most 10.0 °C.
